What all share (format): cell-based
For one data set, the system named is hair-related cells. Put plainly: Test of isolated active substances using hair-related cells in an in vitro system. The text has this:
The 7′-fluoroeckol compound is disclosed in Korean Patent Application No. 10-2011-0000141. The present invention aims to find a dioxinodehydroeckol compound and an Ecklonia cava extract using an extraction method capable of improving hair growth effects.

The subject of data set [1] is human follicle dermal papilla cells. The data set is described as follows: Cell viability of human follicle dermal papilla cells (MTT assay).
Description: The cell viability of human follicle dermal papilla cells were measured using a 3-(4,5-dimethylthiazole-2-yl)-2,5-diphenyl-tetrazolium bromide [MTT] assay.
Specifically, 100 μL of cells were dispensed into each well of 96-well plates at a concentration of 1×10^6 cells/ml and cultured for 24 hours. A sample was prepared in a medium free of FBS and 1% penicillin/streptomycin at various concentrations, and the cells was treated with the sample and incubated for 24 hours. The cells were treated with an MTT solution (5 mg/mL) for 3 hours, and then the MTT was reduced and the medium was carefully removed such that the produced formazan was not removed. Then, 100 μL of dimethyl sulfoxide (DMSO) was dispensed into each well, and after 30 minutes, the absorbance at 570 nm was measured.
For data set [2] the test system is unchanged. The data set is described as follows: Protein expression test (Western blotting) in human follicle dermal papilla cells. The note with it: 0.1 μM, 24 hours. The protocol: (§1) Human follicle dermal papilla cells were purchased from Promo Cell (Heidelberg, Germany). The cells were cultured in a ready-to-use HFDPC medium composed of a basal medium, FCS (fetal calf serum) and a supplement kit Promo Cell (Heidelberg, Germany) containing basal FGF and insulin. For subculture, a kit containing HBSS (HEPES buffered saline), trypsin/EDTA solution and neutralizing solution (Promo Cell, Heidelberg, Germany) was used. Human follicle dermal papilla cells at passages 4 to 6 were used in the test and cultured in a T-25 flask containing 5 ml of medium under the conditions of 37° C. and 5% CO2.
In order to examine the mechanisms of action of the purified extract of Ecklonia cava and the dioxinodehydroeckol compound on the proliferation of human follicle dermal papilla cells, Western blotting was carried out according to standard protocol.
Specifically, the cells were seeded into a 6-well medium together with a serum-free medium and cultured for 24 hours (1.0×10^6 cells/well). Then, the medium was replaced with a fresh medium, and the cells were treated with various concentrations of a sample for 1-24 hours. […] The cells were cultured with horseradish-peroxidase-conjugated secondary antibody at room temperature, and then immune-reactive protein was detected using an enhanced chemiluminescence (ECL) analysis kit according to the manufacturer's instruction. […]
(A western blot detects proteins with antibodies after separation by electrophoresis.)

Data set [3] shares this test system. Put plainly: mRNA expression (RT-PCR) in human follicle dermal papilla cells. To be noted: 0.1 μM, 24 hours. The protocol:
as §1
In order to examine the mechanisms of action of the purified extract of Ecklonia cava and the dioxinodehydroeckol compound on the proliferation of human follicle dermal papilla cells, reverse transcription polymerase chain reaction (RT-PCR) was performed according to a standard protocol. Specifically, the cells were seeded into a 6-well plate together with a serum-free medium and cultured for 24 hours (1.0×10^6 cells/well). Then, the medium was replaced with a fresh medium, and the cells were treated with various concentrations of a test material for 24 hours and then lysed with TRIzol® (Invitrogen).

A further data set has as its system human hair tissue. The data set is described as follows: Evaluation of hair growth by culture of human hair tissue. To be noted: 0.1 μM. The protocol: Human hair tissue provided from Immunobiology Laboratory, Kyungpook National University, was used in the test and cultured in a CO2 incubator at 37° C. with Williams E media (Sigma, USA) containing 2 mM L-glutamin, 100 U/ml streptomycin and 10 ng/ml hydrocortisone. The tissue was cultured with various concentrations of the test material for 6 days, and the length of the hair tissue was measured at days 3 and 6.

On to “7′-fluoroeckol [7′-fluoroeckol compound]”, for which the “influence on hair-related cells” value in the data set on hair-related cells is given as “specifically influence hair-related cells”.

On to `Nc1cc(N2CCCCC2)nc(N)[n+]1[O-]` [Minoxidil, reference compound], for which, in data set [1] (1 μM, listed as minoidil), the cell viability was determined as 121%. Also, the viability at 1 µM in data set [1] (Homo sapiens, 1 μM) was found to be 119%.

On to `Oc1cc(O)c2oc3cc(O)c4oc5cc(O)cc(O)c5oc4c3oc2c1` [dioxinodehydroeckol], for which the viability at 0.1 µM in data set [1] (Homo sapiens, 0.1 μM, read-out: highest cell viability) amounted to 142%. Also, the “viability of the human follicle dermal papilla cells compared to untreated control” value in data set [1] (concentration range of 0.001-5 μM, FIG. 1c) was “significantly increased”. For the same compound, in data set [2], the “expression level of BMP2/4 protein, increase compared to untreated control” value is 1.8 times and the “expression level of β-catenin protein, increase compared to untreated control” value stood at 2.0 times. Further, in data set [3], the “expression level of ALP mRNA, increase” value is 1.5 times; the “expression level of VCAN mRNA, increase” value turned out to be 1.8 times; the “expression level of VEGF mRNA, increase” value is given as 1.3 times. In the data set on human hair tissue (day 3), this compound gave an increased hair length of 0.84 mm. In the data set with human hair tissue (day 6), this compound had an increased hair length of 1.43 mm. In addition, the “influence on hair-related cells” value in the data set with hair-related cells is on record as “specifically influence hair-related cells”.

What is called cell viability is a read-out of living cells in per cent, often relative to untreated cells. Broadly, the viability is a read-out of living cells in per cent, often relative to untreated cells.
